# Measurements published in patent US11560546B2, “Methods for neural conversion of human embryonic stem cells” (MEMORIAL SLOAN KETTERING CANCER CENTER, priority 2009, dated 2023).
# Counter-ions that a name gives are not always drawn.
# How the values were obtained:
# [1] = tested on: rosette-stage neural cells; experiment: Floor plate induction in stromal-feeder (MS5) derived / rosette-stage neural cells; assay type: cell-based, human
# Experimental: (§1) For MS5 induction, established methods previously reported were used (Perrier et al., 2004). Feeder free neural induction was carried out as previously described (Chambers et al., 2009). Briefly, hESCs cultures were disaggregated using accutase for 20 minutes, washed using hESCs media and pre-plated on gelatin for 1 hour at 37° C. in the presence of ROCK inhibitor to remove MEFs. The nonadherent hESCs were washed and plated on matrigel at a density of 20,000 cells/cm2 on matrigel (BD) coated dishes in MEF conditioned hESCs media (CM) spiked with 10 ng/mL of FGF-2 and ROCK-inhibitor. The ROCK inhibitor was withdrawn, and hESCs were allowed to expand in CM for 3 days or until they were nearly confluent. The initial differentiation media conditions included knock out serum replacement (KSR) media with […] TGF-b inhibitor (SB431542, Tocris) and 500 ng/mL of Noggin (R&D). Upon day 5 of differentiation, increasing amounts of N2 media (25%, 50%, 75%) was added to the KSR media every two days while maintaining 500 ng/mL of Noggin and TGF-b inhibitor. For FP induction, Sonic C25II was added at 200 ng/ml.
# hESC derived neural cells at the rosette stage were differentiated into both CNS and PNS progeny and patterned towards multiple cells fates along the A/P and D/V axis (Elkabetz et al., 2008). […] Specification of progenitor cells into FP tissue and cells during mouse development was thought to depend on SHH signaling within early neural lineages. The inventors tested whether rosette-stage neural cells were competent to undergo FP specification in response to SHH. High concentrations of SHH were needed to induce FP during mouse development (Roelink et al., 1994; Ericson et al., 1996). Recombinant N-terminal SHH has a limited activity range due to the lack of posttranslational modifications required for full SHH action. Recently, a modified version of recombinant SHH became available where SHH was tethered to two Isoleucines (Sonic C25II, R&D Systems), mimicking more closely the potency of mammalian SHH protein.
# The majority of cells retained rosette cytoarchitecture and staining for the AN marker BF1 as described previously (FIG. 1A) (Elkabetz et al., 2008).
# Based on the hypothesis that FP specification in the mouse occurs at early developmental stages, at the time of or prior to neural induction, the inventors repeated SHH induction studies at Day 9, the time of rosette specification, using classic stromal-feeder mediated neural induction protocols (Elkabetz et al., 2008). Under this paradigm the inventors noticed a drastic change in cell morphology restricted to the cells treated with SHH-C25II (FIG. 1B).
# [2] = tested on: hESCs; experiment: qRT-PCR of FP, AN and regional markers during FP induction; assay type: cell-based, human
# Experimental: as §1
# Total RNA was extracted using an RNeasy kit (Qiagen). For each sample, 1 ug of total RNA was treated for DNA contamination and reverse transcribed using the Superscript III (Invitrogen). Amplified material was detected using Taqman probes and PCR mix (ABI) on a Mastercycler RealPlex2 (Eppendorf). All results were normalized to a HPRT control and are from 3 technical replicates of 3 independent biological samples at each data point.
# FOXA2 is a key marker of FP development. However, FOXA2 is also highly expressed in the endoderm. To further characterize the hESC derived putative FP tissue, the inventors performed qRT-PCR analyses for candidate markers at Day 11. […] The inventors further characterized the nature of FOXA2+ putative FP cells using a panel of neural precursor, glial, neuronal and non-neural markers (FIG. 7). […] To distinguish FOXA2 expression in hESC derived FP versus endoderm tissue, the inventors differentiated hESCs to endoderm (D'Amour et al., 2005).
# To gain further insight into the factors critical for human FP specification, high resolution temporal gene expression profiles of candidate markers were performed at 6 time points during the 11 day protocol.
# The inventors contemplated the use of SIX6 as a putative marker of anterior FP identity. Thus SIX6 status of the hESC derived FP was used to mark respecification in response to known caudalizing agents such as FGF8, Wnt-1, and Retinoic Acid. Each of these caudalizing factors was added in combination with SHH and the resulting tissue was assessed for expression of the FP markers FOXA2 and NETRIN-1, the AN marker BF1, and putative anterior FP marker SIX6.
# [3] = tested on: hESCs; experiment: Floor plate induction in NSB protocol, FOXA2 immunostaining; assay type: cell-based, human; details: NSB protocol
# Experimental: as §1
# Tissue was fixed using 4% paraformaldehyde and Picric acid for 15 minutes, washed with PBS, permeablized using 0.3% Triton X in PBS, and blocked using 10% Donkey Serum. Primary antibodies used for microscopy included PAX6 (Covance), TUJ1 (Covance), ZO1 (Zymed), BF1 (FOXG1, gift E.Lai), TH (Pelfreez), NKX6.1 (DSHB) and FOXA2 (SantaCruz).
# Using this protocol, in combination with compositions and methods of the present inventions, the inventors aimed to optimize FP differentiation by adding Sonic C25II at different time points during neural induction and assaying for FOXA2 expression. Differentiation was initiated upon NSB exposure, and Sonic C25II was added at Day 1, Day 3, Day 5, or Day 7 (FIG. 2A).
# [4] = most functional assays; cited from earlier work
# [5] = tested on: DKK-1; experiment: DKK-1 transcript (qPCR) and protein in medium (ELISA); assay type: cell-based, human; details: as early as 2 days post treatment
# [6] = tested on: hESCs; experiment: Neural induction of hESC under adherent conditions, PAX6 expression; assay type: cell-based, human; details: 10 uM to 30 nM, each added to 10 uM of SB431542
# Experimental: The inventors contemplated that establishing an even cell distribution is critical for inducing homogenous neural differentiation of hESCs. To this end, undifferentiated hESC were dissociated into single cells and re-plated onto Matrigel coated dishes in conditioned medium supplement with ROCK inhibitor, Y-27632 (Wananabe et at, 2007). After 72 hours cells were switched from hESC conditions to knock-out serum replacement medium (KSR) containing either Noggin, SB4315242, or both factors and allowed to differentiate for a total of 11 days (FIG. 1.a.). […] Neural induction was monitored by expression of PAX6, an early marker of neuroectodermal differentiation ([…], et al., Annu Rev Neurosci 20:483 (1997). As an alternative to the specific Smad inhibitors used here, it is possible to block both distinct Smad pathways using alternative inhibitors or mechanisms. Dorsomorphin is a small molecule alternative to Noggin, targeting the same pathway. Concentrations ranged from 10 uM to 30 nM, each individual amount added to 10 uM of SB431542. […] Quantitative Real-Time (Dual SMAD). […] For each sample, 1 ug of total RNA was treated for DNA contamination and reverse transcribed using the Quantitect RT kit (Qiagen). Amplified material was detected using Quantitect SYBR green probes and PCR kit (Qiagen) on a Mastercycler RealPlex2 (Eppendorf). […]
# [7] = tested on: NSB derived neural precursor cells; experiment: Conditioned media patterning of naive neural progenitor cells, qRT-PCR; assay type: cell-based, human
# From the text: The FP has important functional roles during development in neural patterning and axonal path finding (Jessell, 2000). To assess the functional properties of hESCs derived FP conditioned media was isolated at days 9 and 11 and tested for expression of Netrin-1 in the medium using ELISA (FIG. 3A). Under normal NSB conditions, Netrin-1 is detectable at Day 9 and decreases at Day 11 while in the NSB+SHH condition, there is a 3.5 fold increase in Netrin-1 levels, increasing at Day 11 (FIG. 3B). SHH is a critical patterning factor secreted by FP cells and specifying ventral cell types in a dose-dependent manner. To test if hESCs derived FP secretes factors that can specify ventral precursor domains, conditioned media (CM) was isolated at Days 9 and 11 of the differentiation. At Day 6, exogenous SHH was removed and cultures were washed to eliminate any exogenously added SHH from the medium. Naïve neural progenitor cells were isolated at Day 11 of the control (NSB) protocol and cultured with either NSB CM or FP CM. After Day 5 of culture in the presence of CM, the inventors probed for the expression of ventral precursor markers and expression of the SHH responsive gene GLI2. […] Increase in the expression of ventral markers was confirmed at the level of protein (FIG. 3C′).
# [8] = tested on: hESCs; experiment: Placode induction from hESC (Six1 immunocytochemistry, qRT-PCR); assay type: cell-based, human; details: early addition to SB431542 (1 μM) treated hESCs
# From the text: Sensory placodes are developmental structures formed at the interface of early neuroectodermal and non-neural ectoderm tissue. To address whether the N-SB culture system is suitable for the derivation of placodal cells, The inventors first established a set of markers to identify placode identity in human embryonic stem cells (hESCs)-derived cultures. From studies in other model organisms, The inventors postulated a number of candidate markers to identify human placodal precursor during hESC differentiation including member of the Six, Eya, and Dlx family of transcription factors. Six1 marks the pre-placodal region and placodal cells in model organisms but is also expressed in skeletal muscle precursors.
# 276(1): p. 1-15, herein incorporated by reference. To test whether addition of exogenous BMPs enhances the derivation of Six1+ cells, The inventors exposed SB431542 (1 μM) treated hESCs to various concentration of BMP4. […] 27(3): p. 275-80; Xu, et al., Nat Biotechnol, 2002. 20(12): p. 1261-4, herein incorporated by reference.
# We next explored whether simple withdrawal of the BMP inhibitor noggin during N-SB differentiation may enhance the emergence of placodal fates by de-repressing endogenous BMP signaling. […]
molecule,measurement,setting,value
"Sonic C25II: modified recombinant SHH tethered to two Isoleucines (R&D Systems); 'SHH' in FP induction examples, added at 200 ng/ml",concentrations achieving induction of FOXA2+ cells and decrease in BF1 and PAX6,"[1]; added at Day 9, stromal-feeder neural induction",125 to 500 ng/mL
same,induction of FOXA2+ cells,"[1]; added at Day 9, stromal-feeder neural induction, Day 21",robust upregulation of FOXA2+
same,FP marker (FOXA2) expression on established rosette-stage neural cells,"[1]; dose-response, added at Day 15",did not yield cells expressing FP markers
same,increase in SIX6 mRNA levels,"[2]; Day 5 of differentiation, FP induction versus NSB control","About 50,000 fold"
same,PAX6 and BF1 expression,"[2]; day 7, versus NSB",drastic reduction in PAX6 and BF1
same,FOXA2 yield with extended treatment beyond Day 11,[3],did not increase FOXA2 yield
same,FOXA2+ cells (of total cells),[3]; added starting at day 1,about 65%
same,potency relative to non-modified N-terminal SHH,[4],~10 times
same,DKK-1 mRNA and protein levels,[5],drastic reduction
"c1cc(-c2cnn3cc(-c4ccc(OCCN5CCCCC5)cc4)cnc23)ccn1 [Dorsomorphin, 6-[4-[2-(1-Piperidinyl)ethoxy]phenyl]-3-(4-pyridinyl)-pyrazolo[1,5-a]pyrimidine dihydrochloride]",efficiency of neural induction based on the percentage of PAX6+ cells,[6],not as high as used with Noggin/SB431542
CC1=C2C[C@H]3[C@@H](CC=C4C[C@@H](O)CC[C@@]43C)[C@@H]2CC[C@]12O[C@@H]1C[C@H](C)CN[C@H]1[C@H]2C [cyclopamine],"NKX2.1, NKX6.1 and GLI2 expression induced by FP conditioned media",[7],significantly reduced
"BMP4: bone morphogenetic protein-4, exogenous BMP (protein, UniProt P12644 293-408, looked up) Bone morphogenetic protein 4: SPKHHSQRARKKNKNCRRHSLYVDFSDVGWNDWIVAPPGYQAFYCHGDCPFPLADHLNSTNHAIVQTLVNSVNSSIPKACCVPTELSAISMLYLDEYDKVVLKNYQEMVVEGCGCR",cdx2 induction / trophoectodermal differentiation,[8],induction of cdx2
